These results are taken from PubChem BioAssay (NCI).

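Interpolation was linear, between the two tested concentrations surrounding the appropriate level; five concentrations were tested over 48 hours in 96-well plates. Abbreviation: GI50, concentration required for 50% inhibition of growth. TGI: concentration producing complete growth inhibition.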

Test systems include OVCAR-3 ovarian; HCC-2998 colon; UACC-62 melanoma; OVCAR-5 ovarian; NCI-H23 lung; M14 melanoma; NCI-H522 lung; SNB-75 CNS; 786-0 renal; A498 renal.
Holding throughout (assay): NCI tumour cell line growth inhibition, 48 h

In the case of `C=CCCC1(CCP(=O)(c2ccccc2)c2ccccc2)OCCO1`, the TGI in the test with OVCAR-3 ovarian, in the test with HCC-2998 colon, in the test on UACC-62 melanoma, in the test with OVCAR-5 ovarian, in the test on NCI-H23 lung and in the test with M14 melanoma was above 100 µM each time. For the same compound, the TGI in the test on NCI-H522 lung, in the test on SNB-75 CNS and in the test with 786-0 renal was above 100 µM each time.
`Clc1ccc(N=CNc2ccc(-c3nc4ccccc4[nH]3)cc2)cc1`: the GI50 with OVCAR-3 ovarian is 5.35 µM; with UACC-62 melanoma, 0.386 µM; with OVCAR-5 ovarian it was above 100 µM; in the test on M14 melanoma, above 100 µM; in the test on NCI-H522 lung it was above 100 µM; with SNB-75 CNS, 36.1 µM. Also, the GI50 in the test with 786-0 renal is 68.1 µM. Further, the TGI in the test with OVCAR-3 ovarian, in the test on UACC-62 melanoma, in the test on OVCAR-5 ovarian, in the test with M14 melanoma, with NCI-H522 lung and in the test with SNB-75 CNS was above 100 µM each time. This compound also came in with a TGI with 786-0 renal above 100 µM.
With `NC(=O)NC(=O)C1CCC(=O)N1S(=O)(=O)c1ccc(Cl)cc1` (configuration not stated), the TGI in the test on OVCAR-3 ovarian, in the test with UACC-62 melanoma, in the test on NCI-H23 lung, in the test on M14 melanoma, in the test on NCI-H522 lung and in the test with SNB-75 CNS was above 100 µM in each case. For the same compound, the TGI in the test with 786-0 renal is above 100 µM.
`CCCCCCCCCCCCCCCC(=O)NCC(OCC)OCC`: the TGI in the test on OVCAR-3 ovarian, with HCC-2998 colon, in the test on UACC-62 melanoma, in the test with OVCAR-5 ovarian, in the test with NCI-H23 lung and in the test on M14 melanoma was above 100 µM each time. Further, the TGI with NCI-H522 lung, with SNB-75 CNS and in the test with 786-0 renal was above 100 µM in each case.
`CCOC(=O)C1C(=O)C(=O)N2CCc3c([nH]c4ccccc34)C12` (configuration not stated): the TGI in the test with OVCAR-3 ovarian, in the test with HCC-2998 colon, in the test on UACC-62 melanoma, with OVCAR-5 ovarian, in the test on NCI-H23 lung and with M14 melanoma was above 100 µM in each case. The TGI in the test with NCI-H522 lung, with 786-0 renal and in the test on A498 renal was above 100 µM throughout.
Turning to `Nc1nc(N)c(-c2ccccc2)c(C(=O)Nc2nccs2)n1`, the TGI in the test on OVCAR-3 ovarian, with HCC-2998 colon, in the test with UACC-62 melanoma, in the test on OVCAR-5 ovarian, with NCI-H23 lung and in the test on M14 melanoma was above 100 µM throughout. The compound further showed a TGI in the test on 786-0 renal above 100 µM.
Turning to `O=[N+]([O-])C1(CO)COC(CCc2ccccc2)OC1` (configuration not stated), the TGI in the test on OVCAR-3 ovarian, with HCC-2998 colon, with UACC-62 melanoma, in the test with OVCAR-5 ovarian, in the test with NCI-H23 lung and in the test with M14 melanoma was above 100 µM in each case. In addition, the TGI with NCI-H522 lung, in the test with SNB-75 CNS and with 786-0 renal was above 100 µM each time.
As to `CN(C)C(=O)c1cc2cnc(Nc3ccc(N4CCNCC4)cn3)nc2n1C1CCCC1`, the GI50 was 21 µM with OVCAR-3 ovarian; 27.8 µM with HCC-2998 colon; 15.4 µM in the test with UACC-62 melanoma; 1.45 µM with OVCAR-5 ovarian; 13.9 µM in the test with NCI-H23 lung; 15.7 µM with M14 melanoma. The GI50 with SNB-75 CNS was 10.2 µM; in the test with 786-0 renal it was 11.4 µM; in the test with A498 renal it was 11.8 µM. Also, the TGI is 69.2 µM in the test on OVCAR-3 ovarian; above 100 µM with HCC-2998 colon; 34 µM in the test with UACC-62 melanoma; 73.1 µM with OVCAR-5 ovarian; 63.2 µM in the test on NCI-H23 lung; 39.1 µM in the test with M14 melanoma. Moreover, the TGI stood at 22 µM with SNB-75 CNS, 49.8 µM in the test with 786-0 renal and 30.9 µM with A498 renal.
For `COC(=O)N/N=C(\c1nc2ccc(Cl)cc2[nH]c1=O)C(O)c1ccc([N+](=O)[O-])cc1` (configuration not stated), the TGI with OVCAR-3 ovarian, in the test with HCC-2998 colon, with UACC-62 melanoma, in the test with OVCAR-5 ovarian, in the test on NCI-H23 lung and in the test with M14 melanoma was above 100 µM throughout. The TGI in the test on NCI-H522 lung, in the test on SNB-75 CNS and with 786-0 renal was above 100 µM throughout.
Turning to `COc1ccc(-c2ccc(/C=N/n3c(COc4ccc(Cl)c(C)c4)nn(CN4CCOCC4)c3=S)o2)c([N+](=O)[O-])c1`, the GI50 in the test with OVCAR-3 ovarian was 17.3 µM; with HCC-2998 colon, 16.5 µM; in the test with UACC-62 melanoma, 30.8 µM; with OVCAR-5 ovarian it was 33.2 µM; in the test with NCI-H23 lung, 20.2 µM; with M14 melanoma it was 25.7 µM. Further, the GI50 was 25.5 µM in the test on NCI-H522 lung, 32.5 µM in the test on 786-0 renal and 12.4 µM in the test on A498 renal. For the same compound, the TGI with OVCAR-3 ovarian was 44.8 µM; in the test on HCC-2998 colon, 32.5 µM; in the test on UACC-62 melanoma, above 100 µM; with OVCAR-5 ovarian it was above 100 µM; in the test with NCI-H23 lung it was 51.6 µM; with M14 melanoma, 66.6 µM. Further, the TGI was above 100 µM in the test with NCI-H522 lung, above 100 µM in the test on 786-0 renal and 25.7 µM with A498 renal.
Consider `Oc1ccc(CCNc2nc3ccccc3c3[nH]c4ccccc4c23)cc1`, for which the GI50 in the test on OVCAR-3 ovarian was 1.6 µM; in the test with HCC-2998 colon it was 1.56 µM; in the test on UACC-62 melanoma, 1.66 µM; in the test on OVCAR-5 ovarian, 2.89 µM; in the test on NCI-H23 lung, 1.96 µM; in the test on M14 melanoma it was 1.73 µM. Also, the GI50 was 1.81 µM with SNB-75 CNS, 1.29 µM in the test with 786-0 renal and 11.5 µM with A498 renal. In addition, the TGI worked out at 3.24 µM in the test with OVCAR-3 ovarian; 3.02 µM in the test with HCC-2998 colon; 3.04 µM with UACC-62 melanoma; 7.18 µM in the test on OVCAR-5 ovarian; 4.27 µM in the test on NCI-H23 lung; 3.26 µM in the test on M14 melanoma. The TGI with SNB-75 CNS turned out to be 3.82 µM; in the test with 786-0 renal it was 2.69 µM; with A498 renal it was 23.8 µM.
